Test results reported in ChEMBL document CHEMBL5244241, “Pyrimidine: A promising scaffold for optimization to develop the inhibitors of ABC transporters” (Eur J Med Chem, 2020).
pIC50: −log10 of the molar value.

What was measured:
[1] = Oral bioavailability in BALB/c mouse at 50 mg/kg, […] measured upto 24 hrs relative to control; format: ADME, organism-based; conditions: in vivo
[2] = target: T1, ATP-dependent translocase ABCB1 (Homo sapiens, UniProt P08183); test: Inhibition of ABCB1 (unknown origin)
T1 sequence (P08183 whole entry): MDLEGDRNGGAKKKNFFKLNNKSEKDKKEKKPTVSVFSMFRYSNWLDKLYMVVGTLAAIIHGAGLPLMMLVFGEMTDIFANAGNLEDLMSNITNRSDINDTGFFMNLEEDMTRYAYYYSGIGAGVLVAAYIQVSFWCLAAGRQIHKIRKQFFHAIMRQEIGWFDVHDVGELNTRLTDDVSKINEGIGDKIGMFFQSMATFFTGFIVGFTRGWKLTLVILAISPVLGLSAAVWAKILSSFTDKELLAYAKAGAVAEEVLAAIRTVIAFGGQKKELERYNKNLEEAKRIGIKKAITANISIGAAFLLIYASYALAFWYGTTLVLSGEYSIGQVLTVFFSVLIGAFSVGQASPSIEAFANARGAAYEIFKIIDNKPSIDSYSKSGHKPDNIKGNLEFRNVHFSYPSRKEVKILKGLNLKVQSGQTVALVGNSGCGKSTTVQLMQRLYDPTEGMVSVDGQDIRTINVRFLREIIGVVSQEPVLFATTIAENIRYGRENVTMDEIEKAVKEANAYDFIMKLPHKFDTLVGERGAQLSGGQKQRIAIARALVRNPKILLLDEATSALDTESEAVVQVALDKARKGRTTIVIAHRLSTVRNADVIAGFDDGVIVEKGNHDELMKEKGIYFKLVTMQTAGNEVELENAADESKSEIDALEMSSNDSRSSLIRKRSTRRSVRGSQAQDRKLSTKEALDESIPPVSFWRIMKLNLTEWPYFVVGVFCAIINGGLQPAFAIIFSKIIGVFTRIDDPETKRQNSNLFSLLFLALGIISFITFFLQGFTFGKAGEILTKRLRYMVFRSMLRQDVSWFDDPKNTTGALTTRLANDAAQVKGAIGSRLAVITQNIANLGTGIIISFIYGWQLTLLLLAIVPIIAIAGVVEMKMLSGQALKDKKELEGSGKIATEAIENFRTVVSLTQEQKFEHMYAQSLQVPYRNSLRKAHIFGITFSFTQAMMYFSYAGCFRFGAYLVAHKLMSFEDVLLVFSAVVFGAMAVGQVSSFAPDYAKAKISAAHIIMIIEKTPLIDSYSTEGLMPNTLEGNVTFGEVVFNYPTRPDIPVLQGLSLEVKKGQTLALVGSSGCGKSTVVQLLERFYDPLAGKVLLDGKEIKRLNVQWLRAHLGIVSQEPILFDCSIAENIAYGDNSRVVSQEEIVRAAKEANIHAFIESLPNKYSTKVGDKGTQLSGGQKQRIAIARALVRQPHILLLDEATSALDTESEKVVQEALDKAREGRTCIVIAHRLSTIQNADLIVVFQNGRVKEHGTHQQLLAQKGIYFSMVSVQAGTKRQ

K562/A02 = test: Reversal of doxorubicin-induced multidrug resistance in human K562/A02 cells assessed as reversal fold of doxorubicin cytotoxicity by MTT assay; format: functional
[3] = target: T1, ATP-dependent translocase ABCB1; test: Inhibition of P-gp (unknown origin) mediated ATP hydrolysis

NC(=O)c1c2n(c3c(N4CCN(CCc5ccc(F)c(F)c5)CC4)ncnc13)CCCC2
bioavailability [1]: > 50%

O=[N+]([O-])c1cc(Nc2nc(-c3ccccc3)nc3ccccc23)ccc1O
pIC50 [2]: 7.10

CCCCC(CC(C)=O)n1cnc2c(N)ncnc21 (stereo unspecified)
Ratio (K562/A02): 1.09

CCCCCC(CC(C)=O)n1cnc2c(N)ncnc21 (stereo unspecified)
Ratio (K562/A02): 1.09

Nc1ncnc2c1ncn2[C@@H]1O[C@H](COC(=O)c2ccc(S(=O)(=O)F)cc2)[C@@H](O)[C@H]1O
pIC50 [3]: 3.68

CCCCCCCCCCCCCCCCC(=O)CC(CCCCCCCC)n1cnc2c(N)ncnc21 (stereo unspecified)
Ratio (K562/A02): 1.09
